One series deals with patients with schizophrenia.
Assay: not given
The settings on record: phase Ib; cited from earlier work.
`Cc1cc(C)c2c(n1)CN(C(=O)CC1CN(c3ccnc(C(F)(F)F)c3)C1)C2` [CVL-231]: the PANSS total score entry is listed as “significantly reduce”.

A further series concerns mice.
Assay: not given
Conditions: genetic mouse model of schizophrenia; cited from earlier work.
As for `Cc1c(Cc2ccc(-n3cccn3)cc2)cc2c(c1F)CN([C@H]1COCC[C@@H]1O)C2=O` [TAK-071], the “deficits in memory cognition, social competence, and sensory-motor gating” value is given as “significantly ameliorates”.

A further series deals with patients.
Assay: not given
Conditions: peripheral nervous system and digestive tract; cited from earlier work.
On to `CCCCCCOc1nsnc1C1=CCCN(C)C1` [Xanomeline], for which the “toxic and side effects” value is “serious toxic and side effects”.

The series is the same for the next values; noted with them: phase II clinical trial, Alzheimer's disease; cited from earlier work.
`CCCCCCOc1nsnc1C1=CCCN(C)C1` [Xanomeline]: the “cognitive function of patients” value is “improvement in the cognitive function”.

System in a further series: not listed separately
As to the kind of experiment: Pharmacokinetic properties in vivo in mice (iv and oral). The settings on record: mouse, plasma; CD-1 mice; iv 1.0 mg/kg, oral 2.0 mg/kg; read-out: Bioavailability F. How it is done: The compounds obtained in the examples of the present disclosure were evaluated for their pharmacokinetic properties in vivo in CD-1 mice.
The compounds were tested for their pharmacokinetic characteristics in rodents after intravenous injection and oral administration following standard protocols. In the experiment, the candidate compound was prepared into a clear solution or suspension with a specified vehicle, and administered to three mice via single-dose intravenous injection and oral administration, respectively. The vehicle for both intravenous injection and oral administration was 5% dimethyl sulfoxide+95% (10% polyethylene glycol (15)-hydroxystearate in water). Whole blood samples within 24 hours were collected into a commercial EDTA2K anticoagulant tube, followed by centrifugation to obtain the upper plasma sample, and acetonitrile solution containing internal standard was added to precipitate proteins. After centrifugation, the supernatant was mixed with an equal volume of water, and after another centrifugation, the supernatant was taken for injection. Plasma concentration was quantitatively analyzed using LCMS/MS analysis method, and pharmacokinetic parameters were calculated.
For `Cc1nnc(N2CCC2)c2c1CN(C(=O)CC1CN(c3ccnc(C(F)(F)F)c3)C1)C2` [Example 12], the bioavailability was 86.6%.

Turning to `Cc1nnc(C)c2c1CN(C(=O)CC1CN(c3ccnc(OCC(F)(F)F)c3)C1)C2` [Example 67], the bioavailability was found to be 82.7%.

Regarding `Cc1nnc(C)c2c1CN(C(=O)CC1CN(c3ccnc(O[C@H](C)C(F)(F)F)c3)C1)C2` [Example 89], the bioavailability worked out at 80.6%.

The series is the same for the next values; noted with them: mouse, plasma; CD-1 mice; iv 1.0 mg/kg, oral 2.0 mg/kg; read-out: Clearance CL.
For the compound `Cc1nnc(N2CCC2)c2c1CN(C(=O)CC1CN(c3ccnc(C(F)(F)F)c3)C1)C2` [Example 12], the clearance stood at 1.03 L/h/kg.

As for `Cc1nnc(C)c2c1CN(C(=O)CC1CN(c3ccnc(OCC(F)(F)F)c3)C1)C2` [Example 67], the clearance worked out at 0.199 L/h/kg.

For `Cc1nnc(C)c2c1CN(C(=O)CC1CN(c3ccnc(O[C@H](C)C(F)(F)F)c3)C1)C2` [Example 89], the clearance came to 0.459 L/h/kg.

Staying with this series, now noted: mouse, plasma; CD-1 mice; iv 1.0 mg/kg, oral 2.0 mg/kg; read-out: Volume of distribution at steady state Vdss.
With `Cc1nnc(N2CCC2)c2c1CN(C(=O)CC1CN(c3ccnc(C(F)(F)F)c3)C1)C2` [Example 12], the Vd came out at 2.3 L/kg.

Take `Cc1nnc(C)c2c1CN(C(=O)CC1CN(c3ccnc(OCC(F)(F)F)c3)C1)C2` [Example 67]: the Vd came to 1.53 L/kg.

`Cc1nnc(C)c2c1CN(C(=O)CC1CN(c3ccnc(O[C@H](C)C(F)(F)F)c3)C1)C2` [Example 89]: the Vd was determined as 3.72 L/kg.

Still in this series, the particulars now being: mouse, plasma; CD-1 mice; oral 2.0 mg/kg; read-out: Area under the curve AUC0-last, po.
For `Cc1nnc(N2CCC2)c2c1CN(C(=O)CC1CN(c3ccnc(C(F)(F)F)c3)C1)C2` [Example 12], the AUC(0-t) worked out at 1.69 µg·h/mL.

Regarding `Cc1nnc(C)c2c1CN(C(=O)CC1CN(c3ccnc(OCC(F)(F)F)c3)C1)C2` [Example 67], the AUC(0-t) was determined as 8.04 µg·h/mL.

For `Cc1nnc(C)c2c1CN(C(=O)CC1CN(c3ccnc(O[C@H](C)C(F)(F)F)c3)C1)C2` [Example 89], the AUC(0-t) is 3.47 µg·h/mL.

Staying with this series, now noted: mouse, plasma; CD-1 mice; oral 2.0 mg/kg; read-out: Half-life T1/2, po (converted).
`Cc1nnc(N2CCC2)c2c1CN(C(=O)CC1CN(c3ccnc(C(F)(F)F)c3)C1)C2` [Example 12]: the half-life is 1.13 h.

With `Cc1nnc(C)c2c1CN(C(=O)CC1CN(c3ccnc(OCC(F)(F)F)c3)C1)C2` [Example 67], the half-life is 4.78 h.

With `Cc1nnc(C)c2c1CN(C(=O)CC1CN(c3ccnc(O[C@H](C)C(F)(F)F)c3)C1)C2` [Example 89], the half-life was 4.65 h.

Still in this series, the particulars now being: mouse; CD-1 mice; iv 1.0 mg/kg, oral 2.0 mg/kg; plasma; read-out: Peak concentration Cmax.
`Cc1nnc(N2CCC2)c2c1CN(C(=O)CC1CN(c3ccnc(C(F)(F)F)c3)C1)C2` [Example 12]: the Cmax is 0.614 µg/mL.

`Cc1nnc(C)c2c1CN(C(=O)CC1CN(c3ccnc(OCC(F)(F)F)c3)C1)C2` [Example 67]: the Cmax came out at 0.827 µg/mL.

As to `Cc1nnc(C)c2c1CN(C(=O)CC1CN(c3ccnc(O[C@H](C)C(F)(F)F)c3)C1)C2` [Example 89], the Cmax worked out at 0.345 µg/mL.

The target of another series is T1, human M4 receptor (Homo sapiens, UniProt P08173).
T1 construct: expressed in transfected cells
T1 sequence (P08173 1-479): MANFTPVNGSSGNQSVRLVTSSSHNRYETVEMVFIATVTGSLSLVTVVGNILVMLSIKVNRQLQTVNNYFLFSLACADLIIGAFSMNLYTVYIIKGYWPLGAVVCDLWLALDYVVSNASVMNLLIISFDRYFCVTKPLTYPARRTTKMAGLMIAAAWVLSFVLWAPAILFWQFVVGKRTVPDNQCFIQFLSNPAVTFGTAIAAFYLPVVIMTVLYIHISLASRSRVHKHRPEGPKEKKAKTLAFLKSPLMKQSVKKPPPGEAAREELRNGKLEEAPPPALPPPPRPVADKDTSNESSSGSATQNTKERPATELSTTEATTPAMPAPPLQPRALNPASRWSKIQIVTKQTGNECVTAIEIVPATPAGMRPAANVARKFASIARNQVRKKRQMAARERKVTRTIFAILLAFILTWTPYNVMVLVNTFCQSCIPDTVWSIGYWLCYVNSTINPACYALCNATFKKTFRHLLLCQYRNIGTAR
As to the kind of experiment: PAM activity on M4 receptor, FLIPR CALCIUM 6 assay in M4-Gα15-CHO cells with acetylcholine. Conditions: PAM mode with acetylcholine agonist, FLIPR calcium signal. The format is cell-based. As for the experimental part:
The activity of compounds on M4 receptor was determined by FLIPR CALCIUM 6 ASSAY KIT using a stable transfected cell line expressing human M4 receptor (M4-Gα15-CHO).
1. This study uses a CHO cell line stably expressing M4-Gα15 receptor, which expresses human CHRM4 and GNA15 genes, respectively.
2. Cell treatment: M4-Gα15-CHO cells were cultured in F-12 medium containing 10% fetal bovine serum, 0.4 mg/mL hygromycin B, and 0.8 mg/mL geneticin G418, with a culture temperature of 37° C. and a CO2 concentration of 5%. The old media was removed and the cells were washed once with phosphate buffered saline. 1 mL of trypsin solution was then added, and the mixture was incubated at 37° C. for approximately 2 minutes. After the cells were detached from the dish, approximately 5 mL of complete media pre-warmed at 37° C. was added. The cell suspension was gently pipetted to separate the aggregated cells. The cell suspension was transferred to a sterile centrifuge tube and centrifuged at 1000 rpm for 5 minutes.
1. Cell plating: M4-Gα15-CHO cells were digested and collected, then resuspended and counted, and seeded into a 384-well cell plate at a density of 1.2×10^4 cells/25 μL/well. The cell plate was then incubated in a 5% CO2 incubator at 37° C. for approximately 20 hours.
2. Preparation of loading buffer according to the instructions of FLIPR CALCIUM 6 ASSAY KIT after 24 hours: Component A was freeze-thawed to room temperature, and diluted with assay buffer and probenecid solution to obtain a loading buffer, which was kept at room temperature for later use.
3. The medium was removed from the cell plate, and 35 µL of loading buffer was quickly added to each well. After centrifugation, the cell plate was incubated at 37° C. in the dark for 120 minutes.
4. A working solution of the compound to be tested was prepared, 5 μL of which was transferred to the corresponding cell wells, and incubated at 37° C. in the dark for 30 minutes.
5. 30 nM acetylcholine agonist working solution was prepared and transferred to a 384-well loading plate at 20 μL/well.
6. The cell plate, the loading plate, and the pipette tip were placed at the corresponding positions of the FLIPR instrument. 10 μL of the agonist diluted in step 5 was added to the experimental wells using FLIPR, and data were collected at a wavelength of 515 nm to 575 nm.
7. The signal value was plotted against compound concentration. Curve fitting and EC50 calculation were performed by nonlinear regression method using GraphPad Prism software.
1. 0.5 mol/L 2-(4-(2-hydroxyethyl)piperazine)ethanesulfonic acid buffer was mixed with Hanks' balanced salt solution (pH 7.4) at a volume ratio of 1:24 to prepare an assay buffer. 10 mL of assay buffer was added to a vial of CALCIUM 6 ASSAY KIT Component A in the form of lyophilized powder, and aliquoted and stored at −20° C.
2. Probenecid powder was dissolved in 1 mol/L sodium hydroxide solution to a final concentration of […]. The assay buffer, freeze-thawed Component A, and probenecid solution were mixed at a volume ratio of 44:5:1 to prepare a loading buffer.
`Cc1nnc(N2CCC2)c2c1CN(C(=O)CC1CN(c3ccnc(C(F)(F)F)c3)C1)C2` [Example 12]: the EC50 is 0.35 µM.

As to `Cc1nnc(C)c2c1CN(C(=O)CC1CN(c3ccnc(C(F)(F)F)c3)C1)C2` [Example 24], the EC50 turned out to be 0.387 µM.

Regarding `Cc1nnc(N2CCC2)c2c1CN(C(=O)CC1CN(c3ccnc(OCC(F)(F)F)c3)C1)C2` [Example 47], the EC50 is 0.25 µM.

As for `Cc1nsc(N2CC(CC(=O)N3Cc4c(C)nnc(N5CCC5)c4C3)C2)n1` [Example 50], the EC50 worked out at 1.78 µM.

Take `Cc1nnc(N2CCC2)c2c1CN(C(=O)CC1CN(c3ccnc(C(F)(F)F)c3)C1C)C2` (stereo not drawn) [Example 51]: the EC50 turned out to be 1.37 µM.

In the case of `Cc1nnc(C)c2c1CN(C(=O)CC1CN(c3ccnc(OCC(F)(F)F)c3)C1)C2` [Example 67], the EC50 came out at 0.39 µM.

In the case of `Cc1nnc(C)c2c1CN(C(=O)CC1CN(c3ccnc(SC(F)(F)F)c3)C1)C2` [Example 68], the EC50 was 0.48 µM.

For the compound `Cc1nnc(C)c2c1CN(C(=O)CC1CN(c3ccnc(O[C@H](C)C(F)(F)F)c3)C1)C2` [Example 89], the EC50 came to 0.29 µM.

Regarding `Cc1nnc(C2CC2)c2c1CN(C(=O)CC1CN(c3ccnc(OCC(F)(F)F)c3)C1)C2` [Example 98], the EC50 is 1.13 µM.

On to `CCc1nnc(C)c2c1CN(C(=O)CC1CN(c3ccnc(OCC(F)(F)F)c3)C1)C2` [Example 110], for which the EC50 is 0.9 µM.

For the compound `Cc1nnc(C)c2c1CN(C(=O)CC1CN(c3ccnc(O[C@@H](C)C(F)(F)F)c3)C1)C2` [Example 116], the EC50 is 0.58 µM.

Source of the values: patent US20260109700A1, “NITROGEN-CONTAINING HETEROCYCLIC COMPOUNDS AND PHARMACEUTICALLY ACCEPTABLE SALTS THEREOF, PREPARATION METHOD THEREFOR, AND THE USE THEREOF” (NEUSHEN THERAPEUTICS (SHANGHAI) CO., LTD, priority 2022, published 2026).
